This assay concerns the target T1, human kidney renin (Homo sapiens, UniProt P00797).
T1 construct: Human renin was prepared from human kidney; from tissue; host or cells: human kidney
T1 sequence (P00797 67-406): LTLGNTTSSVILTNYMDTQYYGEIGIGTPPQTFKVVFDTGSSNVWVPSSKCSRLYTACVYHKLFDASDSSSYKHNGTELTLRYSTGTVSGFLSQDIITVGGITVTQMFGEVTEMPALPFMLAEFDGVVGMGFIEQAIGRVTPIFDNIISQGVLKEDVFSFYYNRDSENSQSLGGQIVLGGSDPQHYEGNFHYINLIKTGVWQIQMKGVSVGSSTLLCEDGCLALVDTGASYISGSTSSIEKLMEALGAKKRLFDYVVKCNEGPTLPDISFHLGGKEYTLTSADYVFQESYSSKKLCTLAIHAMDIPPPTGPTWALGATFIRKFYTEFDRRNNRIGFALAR
In words: Radioimmunoassay screen for renin inhibitors (angiotensin I generation, then quantitation by radioimmunoassay). The class given is biochemical. The note with it: human kidney renin, purified human plasma angiotensinogen, maleate buffer pH 6.0, 1 hour at 37° C.; read-out: IC50 Molar Concentration. The procedure:
Radioimmunoassay Screen For Renin Inhibitors
The in vitro method for the screening of anti-renin compounds involves, first, angiotensin I generation, and second, the quantitation of the angiotensin I produced by radioimmunoassay.
The incubation medium consisted of 20 μl of purified human plasma angiotensinogen (1); 40 μl of human kidney renin (2); 5 μl of phenylmethylsulfonyl fluoride; 10 μl of disodium EDTA (10 mM); 10 μl of antirenin compound (5×10^-3, 5×10^-4, 5×10^-5) in dimethylformamide, or ethanol and a suitable amount of maleate buffer (77mM, pH 6.0) to make a final volume of 500 μl. The reaction mixture was incubated for 1 hour at 37° C. and the enzymatic reaction was stopped by placing the tube in ice-cold water. The angiotension I generated during the incubation was measured by a radioimmunoassay plasma renin activity kit (Clinical Assays, Inc.).
Radioimmunoassay Procedure
The incubation medium consisted of either 100 μl aliquots of the above reaction mixture or a standard amount of angiotensin I; 1000 μl of phosphate buffer (100 mM, pH7.6) and 100 μl of (^125 I)angiotensin in a gamma-coat, tube. After three hours of incubation at room temperature, the tubes were decanted, and the radioactivity of each tube was determined in a gamma counter. Duplicate determinations were performed for each incubation. The results were expressed in ng of angiotensin I generated per ml of generation medium per hour of incubation (ng/AI/ml/hr), and the % of inhibition was obtained by the following: % inhibition= [formula]
The results of this test on representative compounds of this invention appear in Table I, expressed as an IC50.
(1) The human plasma angiotensinogen derived from the blood of a person receiving oral contraceptive pills was purified by chromatography on a pepstatin-aminohexyl-agarose column.
(2) Human renin was prepared from human kidney.

pIC50: −log10 of the molar value.

For `CC(C)COC(NC(=O)[C@H](Cc1ccccc1)NC(=O)OCc1ccccc1)C(=O)N[C@@H](CC1CCCCC1)[C@@H](O)c1nccs1` (stereo partly drawn) [N-[Phenylmethoxy)carbonyl]-L-phenylalanyl-D-2-(2-methylpropo] [N-[(Phenylmethoxy)carbonyl]-L-phenylalanyl-D 2-(2-methylpropoxy)glycyl-(1R,2S)-2-amino-3-cyclohexyl-1-(2-thiazolyl)propan-1-ol], the pIC50 was 4.96.
